Results from ChEMBL document CHEMBL1201862, “PubChem BioAssay data set” (2004).
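1) Cells in 96-well plates. 2) Compound, 48 h, 5 concentrations. 3) Linear interpolation between surrounding doses. 4) Unreached endpoint = highest concentration. At the GI50, growth is halved.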 Calls of active or inactive are those of the source. No stated cut-off is given here; in the data, active = GI50 up to about 1.1 µM and inactive = higher.

What was measured:
Test in all cases: inhibition of tumour cell growth, NCI panel, 48 h
OVCAR-3 = tested on: OVCAR-3
NCI/ADR-RES = tested on: NCI/ADR-RES
DU-145 = tested on: DU-145
HCT-116 = tested on: HCT-116
CAKI-1 = tested on: CAKI-1
MCF7 = tested on: MCF7
M14 = tested on: M14
RXF 393 = tested on: RXF 393
Hs-578T = tested on: Hs-578T
UO-31 = tested on: UO-31
HCT-15 = tested on: HCT-15
SW-620 = tested on: SW-620
OVCAR-5 = tested on: OVCAR-5
OVCAR-4 = tested on: OVCAR-4
IGROV-1 = tested on: IGROV-1
EKVX = tested on: EKVX
PC-3 = tested on: PC-3
OVCAR-8 = tested on: OVCAR-8
BT-549 = tested on: BT-549
NCI-H522 = tested on: NCI-H522
TK-10 = tested on: TK-10
SK-MEL-5 = tested on: SK-MEL-5
HOP-62 = tested on: HOP-62
CCRF-CEM = tested on: CCRF-CEM
LOX IMVI = tested on: LOX IMVI
MDA-MB-435 = tested on: MDA-MB-435
HOP-92 = tested on: HOP-92
SF-539 = tested on: SF-539
SF-295 = tested on: SF-295
KM12 = tested on: KM12
UACC-257 = tested on: UACC-257
NCI-H226 = tested on: NCI-H226
SR = tested on: SR
HL-60 = tested on: HL-60
SK-OV-3 = tested on: SK-OV-3
A549 = tested on: A549
SNB-19 = tested on: SNB-19
UACC-62 = tested on: UACC-62
COLO 205 = tested on: COLO 205
U-251 = tested on: U-251
HCC 2998 = tested on: HCC 2998
T47D = tested on: T47D
NCI-H23 = tested on: NCI-H23
HT-29 = tested on: HT-29
SNB-75 = tested on: SNB-75
A498 = tested on: A498
RPMI-8226 = tested on: RPMI-8226
MDA-MB-231 = tested on: MDA-MB-231
786-0 = tested on: 786-0
K562 = tested on: K562
SK-MEL-2 = tested on: SK-MEL-2
ACHN = tested on: ACHN
MDA-N = tested on: MDA-N
SF-268 = tested on: SF-268
NCI-H460 = tested on: NCI-H460
Malme-3M = tested on: Malme-3M
MOLT-4 = tested on: MOLT-4
SN12C = tested on: SN12C
SK-MEL-28 = tested on: SK-MEL-28
SNB-78 = tested on: SNB-78
DMS-273 = tested on: DMS-273
LXFL 529 = tested on: LXFL 529
KM-20L2 = tested on: KM-20L2

Compound: Nc1ccn(C2CCC(CO)O2)c(=S)n1 (stereo not given)
- GI50 (OVCAR-3): > 100 µM (inactive)
- GI50 (NCI/ADR-RES): > 100 µM (inactive)
- GI50 (DU-145): > 100 µM (inactive)
- GI50 (HCT-116): > 100 µM (inactive)
- GI50 (CAKI-1): > 100 µM (inactive)
- GI50 (MCF7): > 100 µM (inactive)
- GI50 (M14): > 100 µM (inactive)
- GI50 (RXF 393): > 100 µM (inactive)
- GI50 (Hs-578T): > 100 µM (inactive)
- GI50 (UO-31): > 100 µM (inactive)
- GI50 (HCT-15): > 100 µM
- GI50 (SW-620): > 100 µM (inactive)
- GI50 (OVCAR-5): > 100 µM (inactive)
- GI50 (OVCAR-4): > 10 µM (inactive)
- GI50 (IGROV-1): > 100 µM (inactive)
- GI50 (EKVX): > 100 µM (inactive)
- GI50 (PC-3): > 100 µM (inactive)
- GI50 (OVCAR-8): > 100 µM (inactive)
- GI50 (BT-549): > 100 µM (inactive)
- GI50 (NCI-H522): > 100 µM (inactive)
- GI50 (TK-10): > 100 µM (inactive)
- GI50 (SK-MEL-5): > 100 µM (inactive)
- GI50 (HOP-62): > 100 µM (inactive)
- GI50 (CCRF-CEM): > 100 µM (inactive)
- GI50 (LOX IMVI): > 100 µM (inactive)
- GI50 (MDA-MB-435): > 100 µM (inactive)
- GI50 (HOP-92): > 100 µM (inactive)
- GI50 (SF-539): > 100 µM (inactive)
- GI50 (SF-295): > 100 µM (inactive)
- GI50 (KM12): > 100 µM (inactive)
- GI50 (UACC-257): > 100 µM (inactive)
- GI50 (NCI-H226): > 100 µM (inactive)
- GI50 (SR): > 100 µM (inactive)
- GI50 (HL-60): > 100 µM (inactive)
- GI50 (SK-OV-3): > 100 µM (inactive)
- GI50 (A549): > 100 µM (inactive)
- GI50 (SNB-19): > 100 µM (inactive)
- GI50 (UACC-62): > 100 µM (inactive)
- GI50 (COLO 205): > 100 µM (inactive)
- GI50 (U-251): > 100 µM (inactive)
- GI50 (HCC 2998): > 100 µM (inactive)
- GI50 (T47D): > 100 µM (inactive)
- GI50 (NCI-H23): > 100 µM (inactive)
- GI50 (HT-29): > 100 µM (inactive)
- GI50 (SNB-75): 89.5 µM (inactive)
- GI50 (A498): > 100 µM (inactive)
- GI50 (RPMI-8226): 35.8 µM (inactive)
- GI50 (MDA-MB-231): > 100 µM (inactive)
- GI50 (786-0): > 100 µM (inactive)
- GI50 (K562): > 100 µM (inactive)
- GI50 (SK-MEL-2): > 100 µM (inactive)
- GI50 (ACHN): > 100 µM (inactive)
- GI50 (MDA-N): > 100 µM (inactive)
- GI50 (SF-268): > 100 µM (inactive)
- GI50 (NCI-H460): > 100 µM (inactive)
- GI50 (Malme-3M): > 100 µM (inactive)
- GI50 (MOLT-4): > 100 µM (inactive)
- GI50 (SN12C): > 100 µM (inactive)

Compound: N[C@H]1CCCC[C@@H]1N1C(=O)c2ccccc2C1(O)c1ccc(Cl)cc1 (stereo not given in full)
- GI50 (OVCAR-3): 8.73 µM (inactive)
- GI50 (NCI/ADR-RES): 12.7 µM (inactive)
- GI50 (DU-145): 13.2 µM (inactive)
- GI50 (HCT-116): 9.79 µM (inactive)
- GI50 (CAKI-1): 4.4 µM (inactive)
- GI50 (MCF7): 12.3 µM (inactive)
- GI50 (M14): 9.44 µM (inactive)
- GI50 (RXF 393): 6.07 µM (inactive)
- GI50 (Hs-578T): 17 µM (inactive)
- GI50 (UO-31): 11.6 µM (inactive)
- GI50 (HCT-15): 13.4 µM
- GI50 (SW-620): 6.3 µM (inactive)
- GI50 (OVCAR-5): 15.1 µM (inactive)
- GI50 (OVCAR-4): 11.2 µM (inactive)
- GI50 (IGROV-1): 12.6 µM (inactive)
- GI50 (EKVX): 15.3 µM (inactive)
- GI50 (PC-3): 11.4 µM (inactive)
- GI50 (OVCAR-8): 15.4 µM (inactive)
- GI50 (BT-549): 15 µM (inactive)
- GI50 (NCI-H522): 13.8 µM (inactive)
- GI50 (TK-10): 12.9 µM (inactive)
- GI50 (SK-MEL-5): 10.5 µM (inactive)
- GI50 (HOP-62): 14.5 µM (inactive)
- GI50 (CCRF-CEM): 2.94 µM (inactive)
- GI50 (LOX IMVI): 9.38 µM (inactive)
- GI50 (MDA-MB-435): 6.5 µM (inactive)
- GI50 (HOP-92): 10.3 µM (inactive)
- GI50 (SF-539): 10.4 µM (inactive)
- GI50 (SF-295): 16 µM (inactive)
- GI50 (KM12): 2.11 µM (inactive)
- GI50 (UACC-257): 4.15 µM (inactive)
- GI50 (NCI-H226): 15.9 µM (inactive)
- GI50 (SR): 13.9 µM (inactive)
- GI50 (HL-60): 2.41 µM (inactive)
- GI50 (SK-OV-3): 15.7 µM (inactive)
- GI50 (A549): 12.2 µM (inactive)
- GI50 (SNB-19): 14 µM (inactive)
- GI50 (UACC-62): 13 µM (inactive)
- GI50 (COLO 205): 3.41 µM (inactive)
- GI50 (U-251): 12.6 µM (inactive)
- GI50 (HCC 2998): 1.86 µM (inactive)
- GI50 (T47D): 4.99 µM (inactive)
- GI50 (NCI-H23): 14.9 µM (inactive)
- GI50 (HT-29): 4.75 µM (inactive)
- GI50 (SNB-75): 1.31 µM (inactive)
- GI50 (A498): 13.7 µM (inactive)
- GI50 (RPMI-8226): 2.61 µM (inactive)
- GI50 (MDA-MB-231): 12.9 µM (inactive)
- GI50 (786-0): 12.6 µM (inactive)
- GI50 (K562): 3.19 µM (inactive)
- GI50 (SK-MEL-2): 15 µM (inactive)
- GI50 (ACHN): 13.7 µM (inactive)
- GI50 (MDA-N): 11.8 µM (inactive)
- GI50 (SF-268): 12.4 µM (inactive)
- GI50 (NCI-H460): 11.2 µM (inactive)
- GI50 (Malme-3M): 14 µM (inactive)
- GI50 (MOLT-4): 5.79 µM (inactive)
- GI50 (SK-MEL-28): 3.78 µM (inactive)
- GI50 (SN12C): 13.7 µM (inactive)

Compound: Cc1cc(=O)n2c(cc3cccccc32)n1
- GI50 (OVCAR-3): > 100 µM (inactive)
- GI50 (CAKI-1): > 100 µM (inactive)
- GI50 (M14): > 100 µM (inactive)
- GI50 (RXF 393): > 100 µM (inactive)
- GI50 (UO-31): > 100 µM (inactive)
- GI50 (HCT-15): > 100 µM
- GI50 (SW-620): > 100 µM (inactive)
- GI50 (OVCAR-5): > 100 µM (inactive)
- GI50 (OVCAR-4): > 100 µM (inactive)
- GI50 (IGROV-1): > 100 µM (inactive)
- GI50 (EKVX): > 100 µM (inactive)
- GI50 (OVCAR-8): > 100 µM (inactive)
- GI50 (NCI-H522): > 100 µM (inactive)
- GI50 (TK-10): > 100 µM (inactive)
- GI50 (SNB-78): > 100 µM (inactive)
- GI50 (DMS-273): > 100 µM (inactive)
- GI50 (HOP-62): > 100 µM (inactive)
- GI50 (CCRF-CEM): > 100 µM (inactive)
- GI50 (LOX IMVI): > 100 µM (inactive)
- GI50 (SF-539): > 100 µM (inactive)
- GI50 (SF-295): > 100 µM (inactive)
- GI50 (KM12): > 100 µM (inactive)
- GI50 (UACC-257): > 100 µM (inactive)
- GI50 (NCI-H226): > 100 µM (inactive)
- GI50 (SR): > 100 µM (inactive)
- GI50 (HL-60): > 100 µM (inactive)
- GI50 (A549): > 100 µM (inactive)
- GI50 (SNB-19): > 100 µM (inactive)
- GI50 (UACC-62): > 100 µM (inactive)
- GI50 (COLO 205): > 100 µM (inactive)
- GI50 (U-251): > 100 µM (inactive)
- GI50 (LXFL 529): > 100 µM (inactive)
- GI50 (HCC 2998): > 100 µM (inactive)
- GI50 (NCI-H23): > 100 µM (inactive)
- GI50 (HT-29): > 100 µM (inactive)
- GI50 (SNB-75): > 100 µM (inactive)
- GI50 (A498): > 100 µM (inactive)
- GI50 (RPMI-8226): > 100 µM (inactive)
- GI50 (786-0): > 100 µM (inactive)
- GI50 (KM-20L2): > 100 µM (inactive)
- GI50 (K562): > 100 µM (inactive)
- GI50 (SK-MEL-2): > 100 µM (inactive)
- GI50 (ACHN): > 100 µM (inactive)
- GI50 (SF-268): > 100 µM (inactive)
- GI50 (NCI-H460): > 100 µM (inactive)
- GI50 (MOLT-4): > 100 µM (inactive)
- GI50 (SK-MEL-28): > 100 µM (inactive)
- GI50 (SN12C): > 100 µM (inactive)
